Measured values reported in patent publication US20250120989A1, “BRIDGED TRICYCLIC CARBAMOYLPYRIDONE COMPOUNDS AND USES THEREOF” (priority 2023, published 2025).

Assay: in vitro
Conditions: human, uninfected MT-4 cells

Q: For CC1=NO[C@@]2(CC[C@H](C)N3C[C@H]2n2cc(C(=O)NCc4ccc(F)cc4F)c(=O)c(OCOC(=O)OCCN(C)C)c2C3=O)C1 [Compound 14, (((3′S,5S,7′R)-10′-((2,4-difluorobenzyl)carbamoyl)-3,3′-dimethyl-1′,11′-dioxo-1′,4′,5′,11′-tetrahydro-3′H,4H,7′H-spiro[isoxazole-5,6′-[2,7]methanopyrido[1,2-a][1,4]diazonin]-12′-yl)oxy)methyl (2-(dimethylamino)ethyl) carbonate], which CC50 at 5 days is on record?
A: Its CC50 at 5 days is 17.1 µM.

Q: For CC1=NO[C@@]2(CC[C@H](C)N3C[C@H]2n2cc(C(=O)NCc4ccc(F)cc4F)c(=O)c(OCOC(=O)N(C)CC(=O)O)c2C3=O)C1 [Compound 45, N-(((((3′S,5S,7′R)-10′-((2,4-difluorobenzyl)carbamoyl)-3,3′-dimethyl-1′,11′-dioxo-1′,4′,5′,11′-tetrahydro-3′H,4H,7′H-spiro[isoxazole-5,6′-[2,7]methanopyrido[1,2-a][1,4]diazonin]-12′-yl)oxy)methoxy)carbonyl)-N-methylglycine], which CC50 at 5 days is on record?
A: The CC50 at 5 days was 50 µM.

Q: With CC[C@H](OP(=O)(O)O)[C@H](C)OC(=O)OCOc1c2n(cc(C(=O)NCc3ccc(F)cc3F)c1=O)[C@@H]1CN(C2=O)[C@@H](C)CC[C@]12CC(C)=NO2 [Compound 72, (((3′S,5S,7′R)-10′-((2,4-difluorobenzyl)carbamoyl)-3,3′-dimethyl-1′,11′-dioxo-1′,4′,5′,11′-tetrahydro-3′H,4H,7′H-spiro[isoxazole-5,6′-[2,7]methanopyrido[1,2-a][1,4]diazonin]-12′-yl)oxy)methyl ((2S,3S)-3-(phosphonooxy)pentan-2-yl) carbonate] as the compound, how does the CC50 at 5 days read?
A: The CC50 at 5 days was 27.2 µM.

Q: With CC[C@@H](OP(=O)(O)O)[C@H](C)OC(=O)OCOc1c2n(cc(C(=O)NCc3ccc(F)cc3F)c1=O)[C@@H]1CN(C2=O)[C@@H](C)CC[C@]12CC(C)=NO2 [Compound 73, (((3′S,5S,7′R)-10′-((2,4-difluorobenzyl)carbamoyl)-3,3′-dimethyl-1′,11′-dioxo-1′,4′,5′,11′-tetrahydro-3′H,4H,7′H-spiro[isoxazole-5,6′-[2,7]methanopyrido[1,2-a][1,4]diazonin]-12′-yl)oxy)methyl ((2S,3R)-3-(phosphonooxy)pentan-2-yl) carbonate] as the compound, how does the CC50 at 5 days read?
A: Its CC50 at 5 days is 30.8 µM.

Q: For CC[C@H](OP(=O)(O)O)[C@H](C)OC(=O)OCOc1c2n(cc(C(=O)NCc3ccc(F)cc3F)c1=O)[C@@H]1CN(C2=O)[C@@H](C)CC[C@]12CC(OC)=NO2 [Compound 74, (((3′S,5S,7′R)-10′-((2,4-difluorobenzyl)carbamoyl)-3-methoxy-3′-methyl-1′,11′-dioxo-1′,4′,5′,11′-tetrahydro-3′H,4H,7′H-spiro[isoxazole-5,6′-[2,7]methanopyrido[1,2-a][1,4]diazonin]-12′-yl)oxy)methyl ((2S,3S)-3-(phosphonooxy)pentan-2-yl) carbonate], which CC50 at 5 days is on record?
A: Its CC50 at 5 days is 26.6 µM.

Q: Which CC50 at 5 days does the source give for CC[C@@H](OP(=O)(O)O)[C@H](C)OC(=O)OCOc1c2n(cc(C(=O)NCc3ccc(F)cc3F)c1=O)[C@@H]1CN(C2=O)[C@@H](C)CC[C@]12CC(OC)=NO2 [Compound 75, (((3′S,5S,7′R)-10′-((2,4-difluorobenzyl)carbamoyl)-3-methoxy-3′-methyl-1′,11′-dioxo-1′,4′,5′,11′-tetrahydro-3′H,4H,7′H-spiro[isoxazole-5,6′-[2,7]methanopyrido[1,2-a][1,4]diazonin]-12′-yl)oxy)methyl ((2S,3R)-3-(phosphonooxy)pentan-2-yl) carbonate] here?
A: Its CC50 at 5 days is 34.3 µM.

Q: With CC[C@@H](OP(=O)(O)O)[C@@H](C)OC(=O)OCOc1c2n(cc(C(=O)NCc3ccc(F)cc3F)c1=O)[C@@H]1CN(C2=O)[C@@H](C)CC[C@]12CC(C)=NO2 [Compound 76, (((3′S,5S,7′R)-10′-((2,4-difluorobenzyl)carbamoyl)-3,3′-dimethyl-1′,11′-dioxo-1′,4′,5′,11′-tetrahydro-3′H,4H,7′H-spiro[isoxazole-5,6′-[2,7]methanopyrido[1,2-a][1,4]diazonin]-12′-yl)oxy)methyl ((2R,3R)-3-(phosphonooxy)pentan-2-yl) carbonate] as the compound, how does the CC50 at 5 days read?
A: The CC50 at 5 days was 24.8 µM.

Q: For CC[C@H](OP(=O)(O)O)[C@@H](C)OC(=O)OCOc1c2n(cc(C(=O)NCc3ccc(F)cc3F)c1=O)[C@@H]1CN(C2=O)[C@@H](C)CC[C@]12CC(C)=NO2 [Compound 77, (((3′S,5S,7′R)-10′-((2,4-difluorobenzyl)carbamoyl)-3,3′-dimethyl-1′,11′-dioxo-1′,4′,5′,11′-tetrahydro-3′H,4H,7′H-spiro[isoxazole-5,6′-[2,7]methanopyrido[1,2-a][1,4]diazonin]-12′-yl)oxy)methyl ((2R,3S)-3-(phosphonooxy)pentan-2-yl) carbonate], which CC50 at 5 days is on record?
A: The CC50 at 5 days was 37 µM.

Q: For CC[C@@H](OP(=O)(O)O)[C@@H](C)OC(=O)OCOc1c2n(cc(C(=O)NCc3ccc(F)cc3F)c1=O)[C@@H]1CN(C2=O)[C@@H](C)CC[C@]12CC(OC)=NO2 [Compound 78, (((3′S,5S,7′R)-10′-((2,4-difluorobenzyl)carbamoyl)-3-methoxy-3′-methyl-1′,11′-dioxo-1′,4′,5′,11′-tetrahydro-3′H,4H,7′H-spiro[isoxazole-5,6′-[2,7]methanopyrido[1,2-a][1,4]diazonin]-12′-yl)oxy)methyl ((2R,3R)-3-(phosphonooxy)pentan-2-yl) carbonate], which CC50 at 5 days is on record?
A: Its CC50 at 5 days is 28.6 µM.

Q: With CC[C@H](OP(=O)(O)O)[C@@H](C)OC(=O)OCOc1c2n(cc(C(=O)NCc3ccc(F)cc3F)c1=O)[C@@H]1CN(C2=O)[C@@H](C)CC[C@]12CC(OC)=NO2 [Compound 79, (((3′S,5S,7′R)-10′-((2,4-difluorobenzyl)carbamoyl)-3-methoxy-3′-methyl-1′,11′-dioxo-1′,4′,5′,11′-tetrahydro-3′H,4H,7′H-spiro[isoxazole-5,6′-[2,7]methanopyrido[1,2-a][1,4]diazonin]-12′-yl)oxy)methyl ((2R,3S)-3-(phosphonooxy)pentan-2-yl) carbonate] as the compound, how does the CC50 at 5 days read?
A: Its CC50 at 5 days is 45.7 µM.

Q: Which CC50 at 5 days does the source give for CC1=NO[C@@]2(CC[C@H](C)N3C[C@H]2n2cc(C(=O)NCc4ccc(F)cc4F)c(=O)c(OCOC(=O)OC[C@H](OP(=O)(O)O)C(C)C)c2C3=O)C1 [Compound 80, (((3′S,5S,7′R)-10′-((2,4-difluorobenzyl)carbamoyl)-3,3′-dimethyl-1′,11′-dioxo-1′,4′,5′,11′-tetrahydro-3′H,4H,7′H-spiro[isoxazole-5,6′-[2,7]methanopyrido[1,2-a][1,4]diazonin]-12′-yl)oxy)methyl ((R)-3-methyl-2-(phosphonooxy)butyl) carbonate] here?
A: The CC50 at 5 days was 27.2 µM.

Q: Which CC50 at 5 days does the source give for COC1=NO[C@@]2(CC[C@H](C)N3C[C@H]2n2cc(C(=O)NCc4ccc(F)cc4F)c(=O)c(OCOC(=O)OC[C@H](OP(=O)(O)O)C(C)C)c2C3=O)C1 [Compound 81, (((3′S,5S,7′R)-10′-((2,4-difluorobenzyl)carbamoyl)-3-methoxy-3′-methyl-1′,11′-dioxo-1′,4′,5′,11′-tetrahydro-3′H,4H,7′H-spiro[isoxazole-5,6′-[2,7]methanopyrido[1,2-a][1,4]diazonin]-12′-yl)oxy)methyl ((R)-3-methyl-2-(phosphonooxy)butyl) carbonate] here?
A: Its CC50 at 5 days is 36.9 µM.
